Source: patent US9464064B2, “HCV helicase inhibitors and methods of use thereof” (University of Kansas, priority 2011, dated 2016)

Target: T1, HCV NS3 helicase NS3h_1b(con1) (Hepatitis C virus genotype 1b, UniProt Q9WMX2)
T1 construct: truncated C-terminally His-tagged NS3 proteins lacking the N-terminal protease, called NS3h; His-tag (C); made in house
Experiment: MBHA screen of NCI mechanistic set library at 20 μM (percent inhibition, compound interference)
Type: biochemical
Conditions: compounds at 20 μM; for Inh. (%) (Inhibition): calculated from Equation 1
In short: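 Molecular beacon-based DNA unwinding assay; compounds screened at 20 μM in triplicate, with DMSO-only negative and 500 nM dT20 positive controls. Fluorescence (ex 643/em 670 nm) was read before and 30 min after adding ATP to 1 mM. Percent inhibition came from the change relative to DMSO controls; interference from pre-ATP fluorescence versus DMSO controls.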

[1] = assay interference calculated with Equation 2 (fluorescence vs DMSO-only controls before ATP)
[2] = MBHA with DNA substrate, assay interference calculated with Equation 2

T1 sequence (Q9WMX2 1192-1657): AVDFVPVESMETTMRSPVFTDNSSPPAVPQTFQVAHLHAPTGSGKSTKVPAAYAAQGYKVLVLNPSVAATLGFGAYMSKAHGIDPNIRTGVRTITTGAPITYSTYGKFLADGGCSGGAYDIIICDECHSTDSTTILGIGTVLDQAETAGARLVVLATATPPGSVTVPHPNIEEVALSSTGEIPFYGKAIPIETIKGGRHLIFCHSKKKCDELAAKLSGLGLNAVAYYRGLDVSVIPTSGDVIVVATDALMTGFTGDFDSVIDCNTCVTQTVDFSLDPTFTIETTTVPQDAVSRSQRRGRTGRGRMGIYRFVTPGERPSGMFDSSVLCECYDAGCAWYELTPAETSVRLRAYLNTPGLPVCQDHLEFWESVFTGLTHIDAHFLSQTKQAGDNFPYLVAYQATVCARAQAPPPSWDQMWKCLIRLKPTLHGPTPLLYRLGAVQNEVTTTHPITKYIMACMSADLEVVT

| Structure (SMILES) | Inh. (%) (Inhibition) (MBHA with a DNA substrate) | Int.* (Ratio) (Interference) [1] | Int.* (Ratio) (Interference) [2] | Inh. (%) (Inhibition) (MBHA with DNA substrate) |
| --- | --- | --- | --- | --- |
| CO[C@@H]1C[C@](C)(O)Cc2cc3c(c(O)c21)C(=O)c1c(O)cc2c(c1C3=O)O[C@@H]1O[C@@]2(C)[C@H](O)[C@@H](N(C)C)[C@@H]1O [Compound 269148] | −4.1 | 0.71 | – | – |
| Cc1cc(NCCCCCCCNc2cc(C)nc3cc(N)ccc23)c2ccc(N)cc2n1 [Compound 273829] | – | – | 0.26 | 105.0 |
| COc1cc2c(cc1Oc1ccc(OC)c3c1CC1c4c(cc(OC)c(OC)c4-3)CCN1C)CC1c3c(cc(OC)c(OC)c3-2)CCN1C (stereo not drawn) [Compound 274893] | – | – | 0.88 | 16.2 |
| C[C@@H](N)C(=O)NC(CO)C(O)C(N)C=O.Cl (stereo partly drawn) [Compound 278619] | – | – | 1.15 | 1.1 |
| CC[C@H](C)C(=O)O[C@H]1CCC=C2C=C[C@H](C)[C@H](CC[C@@H]3C[C@@H](O)CC(=O)O3)[C@H]21 [Compound 281245] | −3.7 | 1.08 | – | – |
| C=C1C(=O)OC2C1CC1OC2C(C)CCC/C(C)=C\CCC1(C)O (stereo not drawn) [Compound 282752] | −5.5 | 1.00 | – | – |
| CCCCCCCCCCCCCCCCCCOP(=O)([O-])OCC[N+](C)(C)C [Compound 282880] | – | – | 0.85 | 5.8 |
| CN(CO)c1nc(N(C)CO)nc(N(C)CO)n1 [Compound 283162] | – | – | 1.08 | −12.0 |
| O=C1NC(=O)[C@H]2[C@H]3C=C[C@@H]([C@@H]12)[C@@H]1[C@H]2C(=O)NC(=O)[C@H]2[C@H]31 [Compound 284356] | – | – | 1.10 | 0.0 |
| Nc1ncnc2c1nc(Cl)n2[C@@H]1O[C@@H]2COP(=O)(O)O[C@H]2[C@H]1O [Compound 284751] | −4.0 | 1.05 | – | – |
| C=C(NC(=O)C(=C)NC(=O)c1csc(C2=N[C@@H]3c4csc(n4)C4NC(=O)c5csc(n5)C([C@](C)(O)[C@@H](C)O)NC(=O)[C@H]5CSC(=N5)/C(=C/C)NC(=O)C(C(C)O)NC(=O)c5csc(n5)C3(CC2)NC(=O)[C@H](C)NC(=O)C(=C)NC(=O)C(=C)NC(=O)C(C(C)C)N[C@@H]2C=Cc3c([C@@H](C)O)cc(nc3[C@H]2O)C(=O)OC4C)n1)C(N)=O (stereo partly drawn) [Compound 285116] | – | – | 0.90 | −0.3 |
| Oc1cccc2cccnc12 [Compound 285166] | – | – | 0.95 | −2.2 |
| COc1cc2c(cc1O)N=CC1CCC(O)N1C2=O (stereo not drawn) [Compound 285223] | −26.2 | 1.01 | – | – |
| NC(=O)c1csc(C2OC(CO)C(O)C2O)n1 (stereo not drawn) [Compound 286193] | – | – | 1.13 | 1.1 |
| CCN(CC)CCNC(=O)c1nn(-c2ccc(Cl)cc2)c2c1CCc1cc(OC)ccc1-2 [Compound 288010] | – | – | 1.01 | 28.3 |
| CC12CCC3C(CCC4CC(OC(=O)Cc5ccc(N(CCCl)CCCl)cc5)CCC43C)C1CCC(=O)N2 (stereo not drawn) [Compound 290205] | – | – | 1.03 | 34.9 |
| O=C1C2=Nc3ccccc3C(O)N2c2ccccc21 (stereo not drawn) [Compound 292147] | – | – | 1.07 | −2.1 |
| COC1CC(CC2CCC(C)C(C(C)C(=O)O)O2)OC2(OC(C)(C3CCC(C)(C4OC(C5OC(O)(CO)C(C)CC5C)CC4C)O3)CC2C)C1C (stereo not drawn) [Compound 292567] | – | – | 0.85 | −11.3 |
| C=C1C(=O)OC2/C=C(/CO)[C@@H](OC(C)=O)C[C@H](O)/C(C)=C\[C@@H](OC(=O)[C@@H](C)CC)[C@@H]12 (stereo partly drawn) [Compound 292663] | – | – | 0.95 | 5.1 |
| CCN(CC)CCOC(=O)Cc1cccc2c(=O)cc(-c3ccccc3)oc12 [Compound 293015] | – | – | 0.96 | 6.7 |
| O=C1Oc2ccccc2C(=O)/C1=C1\C=C(c2ccccc2)SS1 [Compound 293927] | – | – | 1.00 | −14.7 |
| CC(C)C1=C(O)C2=C(C(=O)C1=O)C1(C)CCCC(C)(C)C1CC2O (stereo not drawn) [Compound 294577] | – | – | 0.95 | −15.9 |
| O=C1Nc2ccc(Br)cc2/C1=C\C(=O)c1ccccc1 [Compound 294961] | −28.1 | 1.06 | – | – |
| CC1(O)C=CC(=O)C=C1 [Compound 295156] | 9.0 | 0.99 | – | – |
